Reference: patent US20110250133A1, “GASTRIN […] PEPTIDE COMPOUNDS” (priority 2003, published 2011)

Assays:
[1] = system: PC3 cells; experiment: Internalization and efflux assay in PC3 cells; assay type: cell-based, human; settings: 125I-BBN or Lu-177 complexes; for Internalisation (40 minutes): 40 min at 37° C.; for Efflux (2 h): 2 h at 37° C. after 40 min loading
Description: These studies were conducted in a 96-well plate. […] Incubations were stopped by the addition of 200 μl of ice-cold binding buffer. Plates were washed twice with binding buffer. To remove surface-bound radioligand, the cells were incubated with 0.2M acetic acid (in saline), pH 2.8 for 2 min. Plates were centrifuged and the acid wash media were collected to determine the amount of radioactivity which was not internalized. The cells were collected to determine the amount of internalized ^125I-BBN, and all samples were analyzed in the gamma counter. Data for the internalization assay was normalized by comparing counts obtained at the various time points with the counts obtained at the final time point (T=40 min).
For the efflux studies, after loading the PC3 cells with ^125I-BBN or radiolabeled compounds of the invention for 40 min at 37° C., the unbound material was filtered, and the % of internalization was determined as above. The cells were then resuspended in binding buffer at 37° C. for up to 3 h.

[2] = system: PC3 tumor-bearing nude mice; assay type: in vivo, mouse; settings: 177Lu-labeled, compared with control DO3A-monoamide-Aoc-QWAVGHLM-NH2; for uptake in the tumor: 1 and 24 h
Description: In all studies, mice were administered 100 μL of ^177Lu-labeled test compound at 200 μCi/kg, i.v., with a residence time of 1 and 24 h per group (n=3-4). Tissues were analyzed in an LKB 1282 CompuGamma counter with appropriate standards.

[3] = system: PC3 tumor-bearing nude mouse model; experiment: Radiotherapy efficacy studies in the PC3 tumor-bearing nude mouse model; assay type: in vivo; settings: 177Lu labeled; for survival, Short Term Efficacy Study: 30 mCi/kg, up to 30 days, vs untreated and DO3A-monoamide-Aoc-QWAVGHLM-NH2 control
Description: Radiotherapy studies were performed using the PC3 tumor-bearing nude mouse model. […] (n=12 for each treatment group for up to 30 days, and n=36 for the pooled untreated control group for up to 31 days). […] The subjects were housed in a barrier environment for the duration of the study. Body weight and tumor size (by caliper measurement) were collected on each subject 3 times per week for the duration of the study. Criteria for early termination included: death; loss of total body weight (TBW) equal to or greater than 20%; tumor size equal to or greater than 2 cm^3.

[4] = molecular target: T1, NMB-R (Rattus norvegicus, UniProt P24053); experiment: Competition with 125I-NMB for NMB-R in C6 cells (linker specificity); assay type: binding, rodent; settings: for receptor subtype preference (GRP-R vs NMB-R): from IC50 with 125I-NMB (C6) and 125I-BBN (PC3), cut off 10x the IC50 of [Tyr4]-BBN;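 for all read-outs here: test cells: rodent glioblastoma C6 line carrying NMB-R, human prostate cancer PC3 line carrying GRP-R, affinity fitted by one-site competition nonlinear regression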
T1 construct: C6, an NMB-R expressing rodent glioblastoma cell line; host or cells: C6 glioblastoma cells, intact adherent cells
T1 sequence (P24053 1-390): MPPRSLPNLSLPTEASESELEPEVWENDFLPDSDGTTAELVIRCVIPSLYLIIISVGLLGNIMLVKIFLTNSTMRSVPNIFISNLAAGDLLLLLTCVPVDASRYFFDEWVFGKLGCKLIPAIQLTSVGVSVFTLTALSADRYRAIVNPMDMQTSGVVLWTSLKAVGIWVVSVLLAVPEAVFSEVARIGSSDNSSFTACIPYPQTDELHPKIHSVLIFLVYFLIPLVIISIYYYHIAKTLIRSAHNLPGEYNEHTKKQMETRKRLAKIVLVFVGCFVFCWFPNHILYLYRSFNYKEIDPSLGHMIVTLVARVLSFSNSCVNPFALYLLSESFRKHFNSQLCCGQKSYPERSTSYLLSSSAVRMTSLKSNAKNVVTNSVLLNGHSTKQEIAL
Description: Two cell lines, C6, an NMB-R expressing rodent glioblastoma cell line and PC3, a GRP-R expressing human prostate cancer cell line, were used in this assay. The affinity of various unlabeled compounds for each receptor subtype (NMB-R and GRP-R) was determined indirectly by measuring its ability to compete with the binding of ^125I-NMB or ^125I-BBN to its corresponding receptors in C6 and PC3 cells.
Cells for the assays were plated at a concentration of 9.6×10^4/well in 48 well poly-lysine coated plates (Beckton Dickinson Biocoat). PC3 were obtained from ATCC(CRL-1435) and cultured in RPMI 1640 (ATCC) supplemented with 2 mM L-glutamine, 1.5 g/L Sodium bicarbonate, 10 mM HEPES and 10% FBS. […] PC3 cells for the assays were plated at a concentration of 2.0×10^4 cells/well in 96-well white/clear bottom plates (Falcon Optilux-I). Plates were used for the assays on day 2 of the post-plating.
RPMI 1640 (ATCC) containing 25 mM HEPES, 0.2% BSA fraction V, 1.0 mM AEBSF (CAS # 3087-99-7) and 0.1% Bacitracin (CAS # 1405-87-4), pH 7.4. Custom made ^125I-[Tyr^0]NMB, >2.0 Ci/μmole (Amersham Life Science) [^125I-NMB] and commercially available ^125I-[Tyr^4]BBN, >2.0 Ci/μmole (Perkin Elmer Life Science) [^125I-BBN] were used as radioligands.
Using a 48-well plate assay system (for C6 study) competition experiments were performed using ^125I-NMB. […] Selection of compounds for the assay was based on linker subtype.
The binding parameters obtained from the studies were analyzed using a one-site competition non-linear regression analysis with GraphPad Prism. The relative affinity of various compounds for NMB-R in C6 cells were compared with those obtained using commercially available [Tyr^4]-BBN and [Tyr^0]-NMB. To distinguish the GRP-R preferring compounds from NMB-R plus GRP-R preferring compounds, IC50 values obtained for each compound were compared with those obtained from [Tyr^4-BBN with ^125I-NMB on C6 cells.

[5] = molecular target: T2, GRP-R (Homo sapiens, UniProt P30550); experiment: Competition studies of modified BBN analogs with 125I-BBN for GRP-R in PC3 cells (Example LXI); assay type: binding
T2 construct: host or cells: PC3 (PC-3) human prostate cancer cells, intact adherent cells
Description: PC3 cell lines were obtained from ATCC(CRL-1435) and cultured in RPMI 1640 (ATCC) supplemented with 2 mM L-glutamine, 1.5 g/L Sodium bicarbonate, 10 mM HEPES and 10% FBS. […] PC3 cells for the assays were plated at a concentration of 2.0×10^4 cells/well in a 96-well white/clear bottom plates (Falcon Optilux-I). Plates were used for the assays on day 2 of the post-plating.
^125I-BBN (Cat # NEX258) was obtained from PerkinElmer Life Sciences.
All compounds tested were dissolved in binding buffer and appropriate dilutions were also done in binding buffer. PC3 cells for assay were seeded at a concentration of 2.0×10^4/well either in 96-well black/clear collagen I cellware plates (Beckton Dickinson Biocoat). Plates were used for binding studies on day 2 post-plating. The plates were checked for confluency (>90% confluent) prior to assay. […] The studies were conducted with an assay volume of 75 μL per well. Triplicate wells were used for each data point. After the addition of the appropriate solutions, plates were incubated for 1 hour at 4° C. Incubation was ended by the addition of 200 μL of ice-cold incubation buffer. Plates were washed 5 times and blotted dry. Radioactivity was detected using either a LKB CompuGamma counter or a microplate scintillation counter.

[6] = system: BT-474 human breast cancer cells; experiment: Effect of drug treatment on GRP receptor binding (177Lu-AMBA) in BT-474 cells; assay type: cell-based; settings: for decrease in 177Lu-AMBA binding (GRP receptor specific signal per cell): drug 0.1-1.0 μM (4-OH Tamoxifen 0.001-0.1 μM); for change in GRP receptor specific signal per cell (177Lu-AMBA binding): drug 0.1-1.0 μM (gefitinib 0.1-10 μM); for change in 177Lu-AMBA uptake (GRP-R) on a viable cell basis, BT-474: ↑ increase, ↓ decrease vs untreated
Description: BT-474 breast cancer cells (human primary invasive ductal carcinoma; ER+, PR+, amplified HER2/neu+) were obtained from the American Type Culture Collection. The growth medium for BT-474 cells is Hybri-care Medium (Cat No: 46X, ATCC) supplemented with 10% heat inactivated FBS (Hyclone, SH30070.03), 0.2% NaHCO3, and antibiotic/antimycotic “PSF-1×” (GibcoBRL, 15240-062) for a final concentration of penicillin-streptomycin (1×, 100 units/mL), and fungizone (0.25 μg/mL). […] Cells for binding experiments were plated on Day 0 at 5.6×10^4 cells/cm^2 in 96-well white/clear bottom microtiter plates (Falcon Optilux-I), or 96 well black/clear collagen I cellware plates (Beckton Dickinson Biocoat).
(§1) RPMI 1640 supplemented with 20 mM HEPES, 0.1% BSA (w/v), 0.5 mM PMSF (AEBSF), bacitracin (50 mg/500 ml), pH 7.4.
(§2) Incubations were stopped by the addition of 200 μL of ice-cold binding buffer. Plates were washed three more times with binding buffer, 140 μL of scintillation fluid was added to each well, the plates were sealed and analyzed on a Microβ plate reader (Microbeta Trilux, Perkin-Elmer).
Treatment: BT-474 cells were plated on Day 0 and treated on Days 1 and 2 (DT1, DT2).

[7] = system: T47D human breast cancer cells; experiment: Effect of drug treatment on GRP receptor binding (177Lu-AMBA) in T47D cells; assay type: cell-based; settings: for increase in 177Lu-AMBA binding (GRP receptor specific signal per cell): relative to untreated control, drug 0.1-1.0 μM (gefitinib 0.1-10 μM)
Excerpt: T-47D breast cancer cells (human metastatic mammary gland ductal adenocarcinoma isolated from pleural effusion, ER+, PR+) were obtained from the American Type Culture Collection.

[8] = system: PC-3 prostate cancer cells; experiment: Effect of drug treatment on GRP receptor binding (177Lu-AMBA) in PC-3 cells; assay type: cell-based, human; settings: for increase in 177Lu-AMBA binding (GRP receptor specific signal per cell) / decrease in 177Lu-AMBA binding (GRP receptor specific signal per cell): relative to untreated control; for decrease in 177Lu-AMBA binding (GRP receptor specific signal per cell): drug 0.1-1.0 μM (gefitinib 0.1-10 μM)
Description: as §1, §2
PC-3 (human prostate adenocarcinoma, bone metastasis, AR-, ER) were obtained from the American Type Culture Collection. The growth medium for PC-3 cells is RPMI 1640 (10-041-CM, Mediatech, Inc), supplemented with 10% heat inactivated FBS (Hyclone, SH30070.03) and PSF-1× (as in Example LXVI). The binding buffer, lapatinib solutions, treatment method and cell binding assay is the same as in Example LXVI.

[9] = system: PC-3 prostate cancer cells; experiment: Effect of dasatinib on GRP receptor binding, proliferation and glucose uptake in PC-3 cells (single plate assay); assay type: cell-based, human; settings: for % Change in 2-NBDG uptake / % change in 177Lu-AMBA uptake / % Change in Proliferation / 177Lu-AMBA uptake (Bmax fmoles/million cells): PC3 cells; for % Change in Proliferation: N = 4; for 177Lu-AMBA uptake (Bmax fmoles/million cells): control 266 (±23)
Description: The cells were plated on Day 0 (7.5 k/well 96-well PE Scintiplate). […] To determine the cell numbers and the proliferation, 100 uL of 10% CCK—F solution in DPBS (Molecular technologies) was added to the same plate, incubated for 30 min at 37° C. and the relative fluorescence (RFU) measured at 535 nm. Base on the cell numbers and the ^177Lu-binding, the Bmax (fmoles bound/million cells) was calculated, and the results compared with the control.
For the glucose uptake study, a fluorescently labeled 2-deoxyglucose derivative (2-NBDG) was used. After the dasatinib treatment as described above, the cells were incubated with 2-NBDG (200 uM) in binding buffer for 2 h at 37° C. and measured RFU at 530 nm. The cell numbers were determined using CCK—F as described above. Based on the cell numbers Bmax for glucose uptake was determined and compared with the control.

[10] = BT-474, relative to untreated control
[11] = drug 0.1-1.0 μM, ↑ increase, ↓ decrease vs untreated

T2 sequence (P30550 whole entry): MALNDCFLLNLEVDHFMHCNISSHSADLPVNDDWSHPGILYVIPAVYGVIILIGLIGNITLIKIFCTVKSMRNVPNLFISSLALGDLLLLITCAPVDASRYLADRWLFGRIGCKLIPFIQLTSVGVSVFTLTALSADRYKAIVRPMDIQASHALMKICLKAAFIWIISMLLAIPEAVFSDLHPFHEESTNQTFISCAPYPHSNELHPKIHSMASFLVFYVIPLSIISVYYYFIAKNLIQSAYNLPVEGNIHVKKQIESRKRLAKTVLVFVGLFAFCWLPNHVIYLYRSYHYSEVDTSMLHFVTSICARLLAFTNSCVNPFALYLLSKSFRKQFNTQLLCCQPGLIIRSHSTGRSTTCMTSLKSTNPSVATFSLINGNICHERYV

Compound: CSCC[C@H](NC(=O)[C@H](CC(C)C)NC(=O)[C@H](Cc1c[nH]cn1)NC(=O)CNC(=O)[C@@H](NC(=O)[C@H](C)NC(=O)[C@H](Cc1c[nH]c2ccccc12)NC(=O)[C@H](CCC(N)=O)NC(=O)CC[C@@H](C)[C@H]1CC[C@H]2[C@@H]3CC[C@@H]4C[C@@H](NC(=O)CNC(=O)CN5CCN(CC(=O)O)CCN(CC(=O)O)CCN(CC(=O)O)CC5)CC[C@]4(C)[C@H]3C[C@H](O)[C@]12C)C(C)C)C(N)=O [Compound L63, N-[(3β,5β,12α)-3-[[[[[4,7,10-Tris(carboxymethyl)-1,4,7,10-tetraazacyclododec-1-yl]acetyl]amino]acetyl]amino]-12-hydroxy-24-oxocholan-24-yl]-L-glutaminyl-L-tryptophyl-L-alanyl-L-valyl-glycyl-L-histidyl-L-leucyl-L-methioninamide]
- Internalisation (40 minutes) [1]: 64%
- Efflux (2 h) [1]: 0%
- uptake in the tumor [2]: high tumor uptake
- distribution of radioactivity in the blood, liver and kidneys [2]: increased blood and liver values at early times
- uptake in the mouse pancreas [2]: much higher
- survival, Short Term Efficacy Study [3]: increased survival
- receptor subtype preference (GRP-R vs NMB-R) [4]: dual affinity for both GRP-R and NMB-R

Compound: CSCC[C@H](NC(=O)[C@H](CC(C)C)NC(=O)[C@H](Cc1c[nH]cn1)NC(=O)CNC(=O)[C@@H](NC(=O)[C@H](C)NC(=O)[C@H](Cc1c[nH]c2ccccc12)NC(=O)[C@H](CCC(N)=O)NC(=O)CC[C@@H](C)[C@H]1CC[C@H]2[C@@H]3[C@H](O)C[C@@H]4C[C@@H](NC(=O)CNC(=O)CN5CCN(CC(=O)O)CCN(CC(=O)O)CCN(CC(=O)O)CC5)CC[C@]4(C)[C@H]3C[C@H](O)[C@]12C)C(C)C)C(N)=O [Compound L64, N-[(3β,5β,7α,12α)-3-[[[[[4,7,10-Tris(carboxymethyl)-1,4,7,10-tetraazacyclododec-1-yl]acetyl]amino]acetyl]amino]-7,12-dihydroxy-24-oxocholan-24-yl]-L-glutaminyl-L-tryptophyl-L-alanyl-L-valyl-glycyl-L-histidyl-L-leucyl-L-methioninamide]
- Internalisation (40 minutes) [1]: 69%
- Efflux (2 h) [1]: 20%
- uptake in the tumor [2]: much higher
- uptake in the mouse pancreas [2]: much higher
- survival, Short Term Efficacy Study [3]: increased survival
- survival, Long Term Efficacy Study ([3]; same dose, up to 120 days, vs controls): significantly increased survival
- receptor subtype preference (GRP-R vs NMB-R) [4]: dual affinity for both GRP-R and NMB-R

Compound: DO3A-Gly-Abz4-Gln-Trp-Ala-Val-Gly-His-Phe-Leu-NH2 [Compound L300]
- competition at the GRP-R [5]: high activity at the GRP-R

Compound: DO3A-monoamide-Aoc-QWAVGHLM-NH2
- Internalisation (40 minutes) [1]: 89%
- Efflux (2 h) [1]: 28%

Compound: GNLWATGHFM-NH2
- competition at NMB-R [4]: effective NMB competitors
- receptor preference in words (GRP-R / GRP-R and NMB-R) ([4]; wrapped cell: 'No selective preference' or 'preference for NMB-R'): preference for NMB-R
- competition at the GRP-R [5]: unable to compete

Compound: N-[(3β,5β,12α)-3-[[[4,7,10-Tris(carboxymethyl)-1,4,7,10-tetraazacyclododec-1-yl]acetyl]amino]-glycyl-4-aminobenzoyl-L-glutaminyl-L-tryptophyl-L-alanyl-L-valyl-glycyl-L-histidyl-L-phenylalanyl-L-methioninamide [Compound L228]
- competition at the GRP-R [5]: maintains GRP-R activity

Compound: N-[(3β,5β,12α)-3-[[[4,7,10-Tris(carboxymethyl)-1,4,7,10-tetraazacyclododec-1-yl]acetyl]amino]-glycyl-4-aminobenzoyl-L-glutaminyl-L-tryptophyl-L-alanyl-glycyl-L-histidyl-L-phenylalanyl-L-leucinamide [Compound L224]
- competition at the GRP-R [5]: complete loss of binding

Compound: N-[(3β,5β,12α)-3-[[[4,7,10-Tris(carboxymethyl)-1,4,7,10-tetraazacyclododec-1-yl]acetyl]amino]-glycyl-4-aminobenzoyl-L-leucyl-L-tryptophyl-L-alanyl-L-valinyl-glycyl-L-serinyl-L-phenylalanyl-L-methioninamide [Compound L225]
- competition at the GRP-R [5]: reduces competition at the GRP-R

Compound: dasatinib
- decrease in 177Lu-AMBA binding (GRP receptor specific signal per cell) [6, 10]: 10-15%
- increase in 177Lu-AMBA binding (GRP receptor specific signal per cell) ([7]; T-47D): up to 500%
- increase in 177Lu-AMBA binding (GRP receptor specific signal per cell) ([8]; PC-3, drug 0.1-1.0 μM): up to 250%
- % Change in 2-NBDG uptake ([9]; Dasatinib 1 nM): −4.3 (±4.6) %
- % change in 177Lu-AMBA uptake ([9]; Dasatinib 1 nM): 12.3 (±5.8) %
- % Change in Proliferation ([9]; Dasatinib 1 nM): −4.3 (±1.0) %
- 177Lu-AMBA uptake (Bmax fmoles/million cells) ([9]; Dasatinib 1 nM): 300 (±40) fmoles/million cells
- % Change in 2-NBDG uptake ([9]; Dasatinib 10 nM): −62.9 (±7.1) %
- % change in 177Lu-AMBA uptake ([9]; Dasatinib 10 nM): 45.4 (±8.1) %
- % Change in Proliferation ([9]; Dasatinib 10 nM): −11.2 (±5.9) %
- 177Lu-AMBA uptake (Bmax fmoles/million cells) ([9]; Dasatinib 10 nM): 387 (±46) fmoles/million cells
- % Change in 2-NBDG uptake ([9]; Dasatinib 100 nM): −67.8 (±15.8) %
- % change in 177Lu-AMBA uptake ([9]; Dasatinib 100 nM): 76.7 (±5.0) %
- % Change in Proliferation ([9]; Dasatinib 100 nM): −33.3 (±11.4) %
- 177Lu-AMBA uptake (Bmax fmoles/million cells) ([9]; Dasatinib 100 nM): 470 (±51) fmoles/million cells
- 177Lu-AMBA uptake, average Bmax ([9]; PC-3, 100 nM): ≤ 470 fmoles/million cells
- decrease of glucose uptake (2-NBDG) ([9]; PC-3, 100 nM): ≤ 67.8%
- inhibition of growth (cell proliferation) ([9]; PC-3, 100 nM): ≤ 33%

Compound: gefitinib
- change in GRP receptor specific signal per cell (177Lu-AMBA binding) ([6]; BT-474): no change
- change in 177Lu-AMBA uptake (GRP-R) on a viable cell basis, BT-474 ([6]; drug 0.1-10 μM): NC (NC: Little(<10%) or no change in Lu-AMBA uptake)
- increase in 177Lu-AMBA binding (GRP receptor specific signal per cell) ([7]; T-47D): up to 20%
- decrease in 177Lu-AMBA binding (GRP receptor specific signal per cell) ([8]; PC-3): 20-40%

Compound: imatinib
- change in GRP receptor specific signal per cell (177Lu-AMBA binding) ([6]; BT-474): no change
- change in 177Lu-AMBA uptake (GRP-R) on a viable cell basis, BT-474 ([6]; drug 0.1-1.0 μM): NC (NC: Little(<10%) or no change in Lu-AMBA uptake)
- increase in 177Lu-AMBA binding (GRP receptor specific signal per cell) ([7]; T-47D): up to 15%
- decrease in 177Lu-AMBA binding (GRP receptor specific signal per cell) ([8]; PC-3): 15-25%

Compound: lapatinib
- decrease in cell proliferation ([6]; BT-474, highest concentration): ≤ 65%
- increase in 177Lu-AMBA binding (GRP receptor specific signal per cell) ([6]; BT-474, relative to untreated control, drug 0.1-1.0 μM (β2-estradiol 1 nM)): up to 140%
- decrease in cell proliferation ([7]; T-47D, highest concentration): ≤ 35%
- increase in 177Lu-AMBA binding (GRP receptor specific signal per cell) ([7]; T-47D): up to 50%
- change in proliferation ([8]; PC-3, 0.1-1.0 μM): no change
- change in GRP receptor specific signal per cell (177Lu-AMBA binding) ([8]; PC-3, drug 0.1-1.0 μM (4-OH Tamoxifen 0.001-0.1 μM)): no change
- change in 177Lu-AMBA uptake (GRP-R) on a viable cell basis, PC-3 [8, 11]: NC (NC: Little(<10%) or no change in Lu-AMBA uptake)

Compound: sorafenib
- decrease in 177Lu-AMBA binding (GRP receptor specific signal per cell) [6, 10]: 10-25%
- change in GRP receptor specific signal per cell (177Lu-AMBA binding) ([7]; T-47D): no change
- change in 177Lu-AMBA uptake (GRP-R) on a viable cell basis, T47D [7, 11]: NC (NC: Little(<10%) or no change in Lu-AMBA uptake)
- decrease in 177Lu-AMBA binding (GRP receptor specific signal per cell) ([8]; PC-3): 10-20%

Compound: sunitinib
- decrease in 177Lu-AMBA binding (GRP receptor specific signal per cell) [6, 10]: up to 8%
- increase in 177Lu-AMBA binding (GRP receptor specific signal per cell) ([7]; T-47D): up to 13%
- increase in 177Lu-AMBA binding (GRP receptor specific signal per cell) ([8]; PC-3, drug 0.1-1.0 μM): up to 10%

Compound: yGNLWATGHFM-NH2
- competition at NMB-R [4]: effective NMB competitors
- competition at the GRP-R [5]: unable to compete
